Biological target: T1, FLT3-D835Y (Homo sapiens, UniProt P36888, D835Y)
T1 construct: purchased Invitrogen PV3967
T1 sequence (P36888 27-993 D835Y): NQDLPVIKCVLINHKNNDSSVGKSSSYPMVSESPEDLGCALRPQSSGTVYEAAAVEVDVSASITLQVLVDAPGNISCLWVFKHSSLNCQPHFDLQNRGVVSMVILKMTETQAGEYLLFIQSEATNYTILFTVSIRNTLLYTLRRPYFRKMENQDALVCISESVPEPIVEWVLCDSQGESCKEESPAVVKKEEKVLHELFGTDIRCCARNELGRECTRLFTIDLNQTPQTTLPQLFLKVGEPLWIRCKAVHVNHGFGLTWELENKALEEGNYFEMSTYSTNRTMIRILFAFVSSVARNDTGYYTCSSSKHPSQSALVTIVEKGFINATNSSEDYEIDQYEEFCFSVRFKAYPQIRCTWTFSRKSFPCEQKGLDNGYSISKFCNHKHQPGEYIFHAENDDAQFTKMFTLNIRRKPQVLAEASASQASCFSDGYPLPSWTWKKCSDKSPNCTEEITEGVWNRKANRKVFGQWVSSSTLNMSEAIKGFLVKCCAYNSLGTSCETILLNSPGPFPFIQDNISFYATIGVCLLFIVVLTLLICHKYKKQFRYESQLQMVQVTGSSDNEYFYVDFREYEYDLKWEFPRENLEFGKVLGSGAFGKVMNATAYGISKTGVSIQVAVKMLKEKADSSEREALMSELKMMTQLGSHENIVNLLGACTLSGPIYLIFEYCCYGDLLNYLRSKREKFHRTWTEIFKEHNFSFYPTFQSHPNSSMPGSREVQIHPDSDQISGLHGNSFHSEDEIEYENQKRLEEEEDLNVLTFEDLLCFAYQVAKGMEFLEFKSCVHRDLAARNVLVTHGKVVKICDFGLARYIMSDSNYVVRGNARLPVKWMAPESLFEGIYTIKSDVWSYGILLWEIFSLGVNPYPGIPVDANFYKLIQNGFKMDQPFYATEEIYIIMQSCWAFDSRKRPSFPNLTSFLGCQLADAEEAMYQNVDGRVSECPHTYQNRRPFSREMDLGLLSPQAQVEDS
Assay: FLT3-D835Y recombinant enzyme kinase assay (AlphaScreen)
Format: biochemical
Conditions: 8 pt, GMean
Procedure, shortened: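 AlphaScreen proximity signal at 580 nm, from PY20 acceptor and streptavidin donor beads, measures tyrosine phosphorylation of 30 nM biotin-poly(Glu4-Tyr) peptide by recombinant kinase. ATP: 10 μM (FLT3 mutants), 100 μM (c-KIT). IC50 from loss of signal.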

| IC50 [µM] | SMILES |
| --- | --- |
| 0.0001 to 10 | O=C(Cc1ccc(-c2cnc(Nc3cnn(C4CC4)c3)nc2)cc1F)Nc1cnc(Cl)c(C(F)(F)F)c1 [Compound P-0240, N-[6-chloro-5-(trifluoromethyl)-3-pyridyl]-2-[4-[2-[(1-cyclopropylpyrazol-4-yl)amino]pyrimidin-5-yl]-2-fluoro-phenyl]acetamide] |
| 0.0001 to 10 | COc1ncc(NC(=O)Cc2ccc(-c3cnc(Nc4cnn(C5CC5)c4)nc3)cc2F)cc1C(F)(F)F [Compound P-0241, 2-[4-[2-[(1-cyclopropylpyrazol-4-yl)amino]pyrimidin-5-yl]-2-fluoro-phenyl]-N-[6-methoxy-5-(trifluoromethyl)-3-pyridyl]acetamide] |
| 0.0001 to 10 | O=C(Cc1ccc(-c2cnc(Nc3cnn(C4CC4)c3)nc2)cc1F)Nc1ccc(C(F)(F)F)nc1 [Compound P-0242, 2-[4-[2-[(1-cyclopropylpyrazol-4-yl)amino]pyrimidin-5-yl]-2-fluoro-phenyl]-N-[6-(trifluoromethyl)-3-pyridyl]acetamide] |
| 0.0001 to 10 | O=C(Cc1ccc(-c2cnc(Nc3cnn(C4CC4)c3)nc2)cc1F)Nc1ccc(C(F)(F)F)cn1 [Compound P-0243, 2-[4-[2-[(1-cyclopropylpyrazol-4-yl)amino]pyrimidin-5-yl]-2-fluoro-phenyl]-N-[5-(trifluoromethyl)-2-pyridyl]acetamide] |
| 0.0001 to 10 | O=C(Cc1ccc(-c2cnc(Nc3cnn(C4CC4)c3)nc2)cc1F)Nc1cc(C(F)(F)F)ccn1 [Compound P-0244, 2-[4-[2-[(1-cyclopropylpyrazol-4-yl)amino]pyrimidin-5-yl]-2-fluoro-phenyl]-N-[4-(trifluoromethyl)-2-pyridyl]acetamide] |
| 0.0001 to 10 | CCn1cc(Nc2ncc(-c3ccc(CC(=O)Nc4cnc(OC)c(C(F)(F)F)c4)cc3F)cn2)cn1 [Compound P-0246, 2-[4-[2-[(1-ethylpyrazol-4-yl)amino]pyrimidin-5-yl]-3-fluoro-phenyl]-N-[6-methoxy-5-(trifluoromethyl)-3-pyridyl]acetamide] |
| 0.0001 to 10 | CCn1cc(Nc2ncc(-c3cc(F)c(CC(=O)Nc4cnc(OC)c(C(F)(F)F)c4)cc3F)cn2)cn1 [Compound P-0247, 2-[4-[2-[(1-ethylpyrazol-4-yl)amino]pyrimidin-5-yl]-2,5-difluoro-phenyl]-N-[6-methoxy-5-(trifluoromethyl)-3-pyridyl]acetamide] |
| 0.0001 to 10 | CCn1cc(Nc2ncc(-c3ccc(CC(=O)Nc4cnc(C)c(C(F)(F)F)c4)cc3F)cn2)cn1 [Compound P-0248, 2-[4-[2-[(1-ethylpyrazol-4-yl)amino]pyrimidin-5-yl]-3-fluoro-phenyl]-N-[6-methyl-5-(trifluoromethyl)-3-pyridyl]acetamide] |
| 0.0001 to 10 | CCn1cc(Nc2ncc(-c3cc(F)c(CC(=O)Nc4cnc(C)c(C(F)(F)F)c4)cc3F)cn2)cn1 [Compound P-0249, 2-[4-[2-[(1-ethylpyrazol-4-yl)amino]pyrimidin-5-yl]-2,5-difluoro-phenyl]-N-[6-methyl-5-(trifluoromethyl)-3-pyridyl]acetamide] |
| 0.0001 to 10 | CCn1cc(Nc2ncc(-c3ccc(CC(=O)Nc4cc(C(F)(F)F)ccn4)cc3)cn2)cn1 [Compound P-0250, 2-[4-[2-[(1-ethylpyrazol-4-yl)amino]pyrimidin-5-yl]phenyl]-N-[4-(trifluoromethyl)-2-pyridyl]acetamide] |

The remaining lines, values behind:

| SMILES | IC50 [µM] |
| --- | --- |
| COc1ncc(NC(=O)Cc2ccc(-c3cnc(Nc4cnn(C(F)F)c4)nc3)cc2)cc1C(F)(F)F [Compound P-0211, 2-[4-[2-[[1-(difluoromethyl)pyrazol-4-yl]amino]pyrimidin-5-yl]phenyl]-N-[6-methoxy-5-(trifluoromethyl)-3-pyridyl]acetamide] | 0.0001 to 10 |
| COc1ncc(NC(=O)Cc2ccc(-c3cnc4[nH]c(C#CC(C)(C)O)cc4c3)cc2)cc1C(F)(F)F [Compound P-0214, 2-(4-(2-(3-hydroxy-3-methylbut-1-yn-1-yl)-1H-pyrrolo[2,3-b]pyridin-5-yl)phenyl)-N-(6-methoxy-5-(trifluoromethyl)pyridin-3-yl)acetamide] | 0.0001 to 10 |
| COc1ncc(NC(=O)Cc2ccc(-c3cnc(Nc4cn[nH]c4C)nc3)cc2)cc1C(F)(F)F [Compound P-0221, N-[6-methoxy-5-(trifluoromethyl)-3-pyridyl]-2-[4-[2-[(5-methyl-1H-pyrazol-4-yl)amino]pyrimidin-5-yl]phenyl]acetamide] | 0.0001 to 10 |
| COCCn1cc(Nc2ncc(-c3ccc(CC(=O)Nc4cc(C(F)(F)F)ccn4)cc3)cn2)cn1 [Compound P-0222, 2-[4-[2-[[1-(2-methoxyethyl)pyrazol-4-yl]amino]pyrimidin-5-yl]phenyl]-N-[4-(trifluoromethyl)-2-pyridyl]acetamide] | 0.0001 to 10 |
| COc1ncc(NC(=O)Cc2ccc(-c3cnc4[nH]c(C#Cc5cncn5C)cc4c3)cc2)cc1C(F)(F)F [Compound P-0227, N-[6-methoxy-5-(trifluoromethyl)-3-pyridyl]-2-[4-[2-[2-(3-methylimidazol-4-yl)ethynyl]-1H-pyrrolo[2,3-b]pyridin-5-yl]phenyl]acetamide] | 0.0001 to 10 |
| Cc1nn(C)cc1Nc1ncc(-c2ccc(CC(=O)Nc3cnc(C)c(C(F)(F)F)c3)cc2)cn1 [Compound P-0228, 2-[4-[2-[(1,3-dimethylpyrazol-4-yl)amino]pyrimidin-5-yl]phenyl]-N-[6-methyl-5-(trifluoromethyl)-3-pyridyl]acetamide] | 0.0001 to 10 |
| Cc1ncc(NC(=O)Cc2ccc(-c3cnc(Nc4cnn(C)c4C)nc3)cc2)cc1C(F)(F)F [Compound P-0229, 2-[4-[2-[(1,5-dimethylpyrazol-4-yl)amino]pyrimidin-5-yl]phenyl]-N-[6-methyl-5-(trifluoromethyl)-3-pyridyl]acetamide] | 0.0001 to 10 |
| O=C(Cc1ccc(-c2cnc(Nc3cnn(C4CC4)c3)nc2)cc1)Nc1cncc(C(F)(F)F)c1 [Compound P-0231, 2-[4-[2-[(1-cyclopropylpyrazol-4-yl)amino]pyrimidin-5-yl]phenyl]-N-[5-(trifluoromethyl)-3-pyridyl]acetamide] | 0.0001 to 10 |
| Cc1ncc(NC(=O)Cc2ccc(-c3cnc(Nc4cnn(C5CC5)c4)nc3)cc2)cc1C(F)(F)F [Compound P-0232, 2-[4-[2-[(1-cyclopropylpyrazol-4-yl)amino]pyrimidin-5-yl]phenyl]-N-[6-methyl-5-(trifluoromethyl)-3-pyridyl]acetamide] | 0.0001 to 10 |
| O=C(Cc1ccc(-c2cnc(Nc3cnn(C4CC4)c3)nc2)cc1)Nc1cnc(Cl)c(C(F)(F)F)c1 [Compound P-0233, N-[6-chloro-5-(trifluoromethyl)-3-pyridyl]-2-[4-[2-[(1-cyclopropylpyrazol-4-yl)amino]pyrimidin-5-yl]phenyl]acetamide] | 0.0001 to 10 |
| COc1ncc(NC(=O)Cc2ccc(-c3cnc(Nc4cnn(C5CC5)c4)nc3)cc2)cc1C(F)(F)F [Compound P-0234, 2-[4-[2-[(1-cyclopropylpyrazol-4-yl)amino]pyrimidin-5-yl]phenyl]-N-[6-methoxy-5-(trifluoromethyl)-3-pyridyl]acetamide] | 0.0001 to 10 |
| O=C(Cc1ccc(-c2cnc(Nc3cnn(C4CC4)c3)nc2)cc1)Nc1ccc(C(F)(F)F)nc1 [Compound P-0235, 2-[4-[2-[(1-cyclopropylpyrazol-4-yl)amino]pyrimidin-5-yl]phenyl]-N-[6-(trifluoromethyl)-3-pyridyl]acetamide] | 0.0001 to 10 |
| O=C(Cc1ccc(-c2cnc(Nc3cnn(C4CC4)c3)nc2)cc1)Nc1ccc(C(F)(F)F)cn1 [Compound P-0236, 2-[4-[2-[(1-cyclopropylpyrazol-4-yl)amino]pyrimidin-5-yl]phenyl]-N-[5-(trifluoromethyl)-2-pyridyl]acetamide] | 0.0001 to 10 |
| O=C(Cc1ccc(-c2cnc(Nc3cnn(C4CC4)c3)nc2)cc1)Nc1cc(C(F)(F)F)ccn1 [Compound P-0237, 2-[4-[2-[(1-cyclopropylpyrazol-4-yl)amino]pyrimidin-5-yl]phenyl]-N-[4-(trifluoromethyl)-2-pyridyl]acetamide] | 0.0001 to 10 |
| O=C(Cc1ccc(-c2cnc(Nc3cnn(C4CC4)c3)nc2)cc1F)Nc1cncc(C(F)(F)F)c1 [Compound P-0238, 2-[4-[2-[(1-cyclopropylpyrazol-4-yl)amino]pyrimidin-5-yl]-2-fluoro-phenyl]-N-[5-(trifluoromethyl)-3-pyridyl]acetamide] | 0.0001 to 10 |
| Cc1ncc(NC(=O)Cc2ccc(-c3cnc(Nc4cnn(C5CC5)c4)nc3)cc2F)cc1C(F)(F)F [Compound P-0239, 2-[4-[2-[(1-cyclopropylpyrazol-4-yl)amino]pyrimidin-5-yl]-2-fluoro-phenyl]-N-[6-methyl-5-(trifluoromethyl)-3-pyridyl]acetamide] | 0.0001 to 10 |
